# Experimental data taken from the supplement of paper PMC10307832.
# Legend:
# Test in all cases: relative viability (nuclei count vs DMSO), 5 days (fraction); higher = more cells survive
# [1] = compound: Cn1cc(-c2cnn3c(N)c(Br)c([C@@H]4CCCNC4)nc23)cn1 + CS(=O)(=O)N1CCN(Cc2cc3nc(-c4cccc5[nH]ncc45)nc(N4CCOCC4)c3s2)CC1 [Pictilisib] (partner 1 µM)
# How it was run: (§1)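 After 5 days of treatment, lung cancer cells in 1536-well plates were fixed and stained in a single step (final 0.05% Triton X-100, 1% formaldehyde, 1 ug/ml Hoechst) and their nuclei counted on 4× images. Treatment had been applied by pin tool the day after seeding as one drug alone or as a fixed anchor-drug dose with five library-drug doses (not always all listed) in √10 steps. Relative viability is the nuclei count of treated wells divided by that of vehicle wells, and values are medians of duplicate plates.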
# [2] = compound: Cn1cc(-c2cnn3c(N)c(Br)c([C@@H]4CCCNC4)nc23)cn1 + Cc1nc(NC(=O)N2CCC[C@H]2C(N)=O)sc1-c1ccnc(C(C)(C)C(F)(F)F)c1 [Alpelisib] (partner 2 µM)
# How it was run: as §1
# [3] = compound: Cn1cc(-c2cnn3c(N)c(Br)c([C@@H]4CCCNC4)nc23)cn1 + N=C(N)NC(=N)NCCc1ccccc1 [Phenformin] (partner 250 µM)
# How it was run: as §1
# [4] = compound: Cn1cc(-c2cnn3c(N)c(Br)c([C@@H]4CCCNC4)nc23)cn1 + NC(=O)Nc1cc(-c2cccc(F)c2)sc1C(=O)N[C@H]1CCCNC1 [AZD7762] (partner 0.2 µM)
# How it was run: as §1
Cell Line,relative viability ([1]; first compound 0.05 µM),relative viability ([1]; first compound 0.1581 µM),relative viability ([1]; first compound 0.5 µM),relative viability ([1]; first compound 1.581 µM),relative viability ([1]; first compound 5 µM),relative viability ([2]; first compound 0.05 µM),relative viability ([2]; first compound 0.1581 µM),relative viability ([2]; first compound 0.5 µM),relative viability ([2]; first compound 1.581 µM),relative viability ([2]; first compound 5 µM),relative viability ([3]; first compound 0.05 µM),relative viability ([3]; first compound 0.1581 µM),relative viability ([3]; first compound 0.5 µM),relative viability ([3]; first compound 1.581 µM),relative viability ([3]; first compound 5 µM),relative viability ([4]; first compound 0.05 µM),relative viability ([4]; first compound 0.1581 µM),relative viability ([4]; first compound 0.5 µM),relative viability ([4]; first compound 1.581 µM),relative viability ([4]; first compound 5 µM)
201T,0.644,0.621,0.704,0.613,0.573,1.04,1.02,1.05,0.98,0.909,0.452,0.517,0.429,0.366,0.405,0.597,0.618,0.661,0.506,0.498
A-427,0.675,0.661,0.819,0.643,0.509,1.11,1.05,1.15,0.977,1.01,0.348,0.324,0.288,0.284,0.269,0.72,0.569,0.566,0.502,0.344
ABC-1,0.763,0.666,0.721,0.54,0.341,1.14,1.03,0.814,0.917,0.401,0.252,0.236,0.254,0.218,0.192,0.689,0.984,0.755,0.599,0.5
BEN,0.628,0.575,0.498,0.496,0.417,0.891,1.15,1.05,0.869,0.778,0.249,0.213,0.288,0.268,0.284,0.659,0.69,0.688,0.667,0.533
CAL-12T,0.416,0.45,0.525,0.389,0.244,1.27,1.29,0.937,0.716,0.228,0.478,0.585,0.537,0.377,0.155,0.541,0.531,0.538,0.494,0.239
COR-L23,0.952,1.16,0.597,0.447,0.257,0.768,1.09,0.981,0.589,0.306,0.479,0.474,0.443,0.298,0.191,,,,,
COR-L 105,0.459,0.4,0.376,0.376,0.385,0.962,1,0.978,0.734,0.572,0.504,0.508,0.452,0.379,0.301,,,,,
Calu-6,0.935,0.605,0.419,0.212,0.194,0.98,0.82,0.883,0.379,0.182,,,,,,,,,,
ChaGo-K-1,0.708,0.672,0.65,0.617,0.501,,,,,,0.467,0.523,0.509,0.46,0.503,0.843,0.801,0.866,0.761,0.755
EBC-1,0.466,0.36,0.37,0.265,0.221,0.902,0.913,0.704,0.774,0.753,,,,,,,,,,
EKVX,0.507,0.506,0.507,0.469,0.396,0.908,1.05,0.91,0.694,0.753,0.223,0.254,0.257,0.245,0.194,0.76,0.75,0.711,0.603,0.537
EMC-BAC-2,0.545,0.561,0.531,0.475,0.509,0.778,0.885,0.66,0.708,0.81,0.515,0.509,0.505,0.405,0.461,1.05,1.26,1.08,1.04,0.821
EPLC-272H,0.289,0.291,0.277,0.211,0.21,0.93,0.902,1.01,0.956,0.824,0.288,0.275,0.321,0.292,0.188,0.13,0.195,0.179,0.17,0.178
H3255,0.489,0.488,0.427,0.425,0.327,0.776,0.722,0.684,0.626,0.494,0.372,0.353,0.345,0.385,0.322,0.978,0.896,1.05,0.746,0.527
HARA,0.463,0.345,0.372,0.438,0.207,0.875,0.701,0.792,0.806,0.619,0.468,0.518,0.448,0.36,0.136,0.401,0.34,0.292,0.26,0.199
HCC-15,0.798,0.768,0.757,0.634,0.764,0.981,1.01,0.863,0.782,0.901,0.494,0.524,0.429,0.406,0.349,1.18,1.29,1.3,1.31,1.36
HCC-44,0.566,0.577,0.63,0.465,0.427,0.876,0.899,0.759,0.747,0.786,0.155,0.193,0.179,0.188,0.172,0.889,1.01,1.02,0.964,1.05
HCC-78,0.245,0.246,0.11,0.155,0.154,0.365,0.334,0.372,0.354,0.289,,0.687,0.796,0.7,0.605,0.515,0.647,0.648,0.563,0.386
